These results are taken from patent publication US20230210853A1 (Halia Therapeutics, Inc., priority 2020, published 2023).

For one assay, the target named is T1, full-length recombinant human NEK7 (Homo sapiens, UniProt Q8TDX7).
T1 construct: full-length recombinant human NEK7; GST (N); purchased SignalChem N09-10G; host or cells: Sf9 insect cells (baculovirus)
T1 sequence (Q8TDX7 whole entry): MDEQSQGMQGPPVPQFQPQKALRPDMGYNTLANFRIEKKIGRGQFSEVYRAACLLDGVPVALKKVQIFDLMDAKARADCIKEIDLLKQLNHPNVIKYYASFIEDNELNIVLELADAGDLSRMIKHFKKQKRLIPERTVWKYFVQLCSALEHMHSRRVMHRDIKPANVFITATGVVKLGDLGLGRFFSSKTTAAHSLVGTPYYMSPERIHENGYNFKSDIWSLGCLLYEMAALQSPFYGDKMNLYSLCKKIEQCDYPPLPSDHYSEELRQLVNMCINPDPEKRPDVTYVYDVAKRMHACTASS
The assay is described as follows: NEK7 enzymatic assay ([33P]-ATP, casein substrate). It counts as biochemical. As to conditions: Table 2a; recombinant human NEK7, casein substrate. The procedure: In some embodiments, the IC50 of the compounds of Structure (I), (Ia), (Ib), (Ic), (Id), (Ie), or (If) to inhibit NEK7 was determined by the concentration of the compound required to inhibit 50% of the activity of the NEK kinase.
(§1) Casein substrate (from bovine milk, hydrolyzed and partially dephosphorylated mixture of α, β and κ caseins, obtained from Sigma Aldrich, catalogue #C4765, diluted in distilled water to a final concentration of 1 mg/mL) and full-length recombinant human NEK7 (expressed by baculovirus in Sf9 insect cells using a N-terminal GST tag, obtained from SignalChem, catalogue #N09-10G, 0.1 μg/μL) were mixed in assay buffer (20 mM Hepes pH 7.5, 10 mM MgCl2, 1 mM EGTA, 0.02% Brij35, 0.02 mg/ml BSA, 0.1 mM Na3 VO4, 2 mM DTT, 1% DMSO). Compounds of interest (serial 3-fold dilution in DMSO from 10 μM to 0.5 nM) or vehicle (1% DMSO) were dispensed into the kinase reaction mixture by Acoustic technology (Echo550, nanoliter range). After incubation at room temperature for 20 minutes, the kinase reaction was initiated by addition of [^33P]-ATP (specific activity 10 μCi/μl) and the mixture was incubated at room temperature for 2 hours. The reaction was then stopped by spotting the reaction mixture on strips of phosphocellulose P81 paper. Following washing, the radioactivity of the P81 paper was measured and kinase activity data were expressed as the percent remaining kinase activity in test samples compared to vehicle reactions. IC50 values and curve fits were obtained using Prism (GraphPad Software).
as §1, with “μg/L)” for “μg/μL)”, “Na3VO4,” for “Na3 VO4,”, “(Echo550;” for “(Echo550,”
One may read the IC50 as the concentration that inhibits the measured activity by half. `CCC(C)c1cc(NC(=O)Nc2ccc(-c3nn(C4CC4)c4ncnc(N)c34)cc2F)on1` (stereo not drawn) [Ia-43, 1-(4-(4-amino-1-cyclopropyl-1H-pyrazolo[3,4-d]pyrimidin-3-yl)-2-fluorophenyl)-3-(3-(sec-butyl)isoxazol-5-yl)urea]: the half-inhibitory concentration (IC50) was 151 to 300 nM.
Regarding `CC(C)(C)c1cc(NC(=O)Nc2ccc(-c3nn(C4CCCOC4)c4ncnc(N)c34)cc2F)on1` (stereo not drawn) [Ia-19, 1-(4-(4-amino-1-(tetrahydro-2H-pyran-3-yl)-1H-pyrazolo[3,4-d]pyrimidin-3-yl)-2-fluorophenyl)-3-(3-(tert-butyl)isoxazol-5-yl)urea], the half-inhibitory concentration (IC50) is 301 to 500 nM.
Turning to `CC(C)(C)c1cc(NC(=O)Nc2ccc(-c3nn(C4CCC4)c4ncnc(N)c34)cc2F)on1` [Ia-8, 1-(4-(4-amino-1-cyclobutyl-1H-pyrazolo[3,4-d]pyrimidin-3-yl)-2-fluorophenyl)-3-(3-(tert-butyl)isoxazol-5-yl)urea], the half-inhibitory concentration (IC50) was less than 150 nM.
Regarding `Nc1ncnc2c1c(-c1ccc(NC(=O)Nc3cc(C(F)(F)F)no3)c(F)c1)nn2C1CC1` [Ia-39, 1-(4-(4-amino-1-cyclopropyl-1H-pyrazolo[3,4-d]pyrimidin-3-yl)-2-fluorophenyl)-3-(3-(trifluoromethyl)isoxazol-5-yl)urea], the IC50 was in the range of 151 to 300 nM.
Consider `C=CCn1nc(-c2ccc(NC(=O)Nc3cc(C(C)(C)C)on3)c(F)c2)c2c(N)ncnc21` [Ia-26], for which the IC50 is 151 to 300 nM.
As for `CC(C)(c1cc(NC(=O)Nc2ccc(-c3nn(C4CC4)c4ncnc(N)c34)cc2F)on1)C(F)(F)F` [Ia-22, 1-(4-(4-amino-1-cyclopropyl-1H-pyrazolo[3,4-d]pyrimidin-3-yl)-2-fluorophenyl)-3-(3-(1,1,1-trifluoro-2-methylpropan-2-yl)isoxazol-5-yl)urea], the IC50 was 151 to 300 nM.
On the same count and under the same terms, for `CC(C)(C)c1cc(NC(=O)Nc2ccc(-c3nn(C4CCOC4)c4ncnc(N)c34)cc2)on1` (stereo not drawn) [Ia-5, 1-(4-(4-amino-1-(tetrahydrofuran-3-yl)-1H-pyrazolo[3,4-d]pyrimidin-3-yl)phenyl)-3-(3-(tert-butyl)isoxazol-5-yl)urea] the value was 151 to 300 nM; for `CC(C)(O)Cn1nc(-c2ccc(NC(=O)Nc3cc(C(C)(C)C)no3)c(F)c2)c2c(N)ncnc21` [Ia-10], less than 150 nM.
The same measure, in the same setting: for `CC(C)(F)c1cc(NC(=O)Nc2ccc(-c3nn(C4CC4)c4ncnc(N)c34)cc2F)on1` [Ia-27, 1-(4-(4-amino-1-cyclopropyl-1H-pyrazolo[3,4-d]pyrimidin-3-yl)-2-fluorophenyl)-3-(3-(2-fluoropropan-2-yl)isoxazol-5-yl)urea] the value was 501 to 1500 nM.

Still in this assay, the particulars now being: Table 2b; recombinant human NEK7, casein substrate.
Regarding `CC(C)(C)c1cc(NC(=O)NC2CCC(Oc3ccnc4[nH]ccc34)CC2)n(-c2ccccc2)n1` (stereo not drawn) [Ib-16, 1-(4-((1H-pyrrolo[2,3-b]pyridin-4-yl)oxy)cyclohexyl)-3-(3-(tert-butyl)-1-phenyl-1H-pyrazol-5-yl)urea], the IC50 is greater than 1500 nM.
On the same count and under the same terms, the same measure for `Cc1cc(NC(=O)Nc2ccc(Oc3ccnc4[nH]cc(Cl)c34)cc2F)n(-c2ccccc2)n1` [Ib-10, 1-(4-((3-chloro-1-pyrrolo[2,3-b]pyridin-4-yl)oxy)-2-fluorophenyl)-3-(3-methyl-1-phenyl-1H-pyrazol-5-yl)urea]: greater than 1500 nM; for `CC(C)(C)c1cc(NC(=O)Nc2ccc(Oc3ncnc4[nH]cc(Cl)c34)cc2F)n(-c2ccccc2)n1` [Ib-13, 1-(3-(tert-butyl)-1-phenyl-1H-pyrazol-5-yl)-3-(4-((5-chloro-7H-pyrrolo[2,3-b]pyrimidin-4-yl)oxy)-2-fluorophenyl)urea]: greater than 1500 nM; for `CC(C)(C)c1cc(NC(=O)Nc2ccc(Oc3ccnc4[nH]ccc34)cc2F)n(-c2ccccc2)n1` [Ib-1, 1-(4-((1H-pyrrolo[2,3-b]pyridin-4-yl)oxy)-2-fluorophenyl)-3-(3-(tert-butyl)-1-phenyl-1H-pyrazol-5-yl)urea]: greater than 1500 nM.

Still in this assay, the particulars now being: Table 2e; recombinant human NEK7, casein substrate.
On to `CN1CC2CCC1CN2Cc1ccc(NC(=O)Nc2ccc(Oc3ccnc4[nH]cc(Cl)c34)cc2F)cc1C(F)(F)F` (stereo not drawn) [Ie-35, 1-(4-((3-chloro-1H-pyrrolo[2,3-b]pyridin-4-yl)oxy)-2-fluorophenyl)-3-(4-((5-methyl-2,5-diazabicyclo[2.2.2]octan-2-yl)methyl)-3-(trifluoromethyl)phenyl)urea], for which the IC50 was greater than 1500 nM.
In the case of `CN(C)C1CCN(Cc2ccc(NC(=O)Nc3ccc(Oc4ccnc5[nH]cc(Cl)c45)cc3F)cc2C(F)(F)F)C1` (stereo not drawn) [Ie-21, 1-(4-((3-chloro-1H-pyrrolo[2,3-b]pyridin-4-yl)oxy)-2-fluorophenyl)-3-(4-((3-(dimethylamino)pyrrolidin-1-yl)methyl)-3-(trifluoromethyl)phenyl)urea], the IC50 is greater than 1500 nM.
With `O=C(Nc1ccc(CN2CCN(C3CC3)CC2)c(C(F)(F)F)c1)Nc1ccc(Oc2ccnc3[nH]cc(Cl)c23)cc1F` [Ie-11, 1-(4-((3-chloro-1H-pyrrolo[2,3-b]pyridin-4-yl)oxy)-2-fluorophenyl)-3-(4-((4-cyclopropylpiperazin-1-yl)methyl)-3-(trifluoromethyl)phenyl)urea], the 50% inhibitory concentration (IC50) is greater than 1500 nM.
On the same count and under the same terms, the same measure for `CN1CCN(Cc2ccc(NC(=O)Nc3ccc(Oc4ccnc5[nH]cc(Cl)c45)cc3F)cc2Cl)CC1` [Ie-12, 1-(4-((3-chloro-1H-pyrrolo[2,3-b]pyridin-4-yl)oxy)-2-fluorophenyl)-3-(3-chloro-4-((4-methylpiperazin-1-yl)methyl)phenyl)urea]: greater than 1500 nM; for `COCCN1CCN(Cc2ccc(NC(=O)Nc3ccc(Oc4ccnc5[nH]cc(Cl)c45)cc3F)cc2C(F)(F)F)CC1` [Ie-42, 1-(4-((3-chloro-1H-pyrrolo[2,3-b]pyridin-4-yl)oxy)-2-fluorophenyl)-3-(4-((4-(2-methoxyethyl)piperazin-1-yl)methyl)-3-(trifluoromethyl)phenyl)urea]: greater than 1500 nM.

The same assay, now with this note: Table 2d; recombinant human NEK7, casein substrate.
Turning to `CN1CCN(Cc2ccc(NC(=O)Nc3ccc(-c4cn(C5CC5)c5ncnc(N)c45)cc3F)cc2)CC1` [Id-56], the IC50 is greater than 1500 nM.
With `CCN1CCN(Cc2ccc(NC(=O)Nc3ccc(-c4cn(C5CC5)c5ncnc(N)c45)cc3F)cc2)CC1` [Id-57], the half-maximal inhibitory concentration (IC50) was greater than 1500 nM.
On the same count and under the same terms, for `CN1CCN(Cc2ccc(NC(=O)Nc3ccc(-c4cn(C5CC5)c5ncnc(N)c45)cc3F)cc2C(F)F)CC1` [Id-58] the value was greater than 1500 nM; for `Cc1cn(-c2ccc(NC(=O)Nc3ccc(-c4cn(C5CC5)c5ncnc(N)c45)cc3F)cc2C(F)(F)F)cn1` [Id-23], greater than 1500 nM; for `Nc1ncnc2c1c(-c1ccc(NC(=O)Nc3ccc(CN4CCN(CCO)CC4)c(C(F)(F)F)c3)c(F)c1)cn2C1CC1` [Id-41, 1-(4-(4-amino-7-cyclopropyl-7H-pyrrolo[2,3-d]pyrimidin-5-yl)-2-fluorophenyl)-3-(4-((4-(2-hydroxyethyl)piperazin-1-yl)methyl)-3-(trifluoromethyl)phenyl)urea], less than 150 nM.
For the compound `CN1CCN(Cc2ccc(NC(=O)Nc3ccc(-c4cn(CCO)c5ncnc(N)c45)cc3F)cc2C(F)(F)F)CC1` [Id-70], the half-inhibitory concentration (IC50) was less than 150 nM.
Same read-out and setting: for `CCN1CCN(Cc2ccc(NC(=O)Nc3ccc(-c4cn(C5CC5)c5ncnc(N)c45)cc3Cl)cc2C(F)(F)F)CC1` [Id-54, 1-(4-(4-amino-7-cyclopropyl-7H-pyrrolo[2,3-d]pyrimidin-5-yl)-2-chlorophenyl)-3-(4-((4-ethylpiperazin-1-yl)methyl)-3-(trifluoromethyl)phenyl)urea] the value was less than 150 nM.

The assay is the same for the next values; noted with them: comparative compounds of Structure (II).
Consider `Cc1c(CC(=O)N2CCc3c2ccc(-c2nn(C(C)C)c4ncnc(N)c24)c3F)cccc1C(F)(F)F` [II-6, 1-(5-(4-amino-1-isopropyl-1H-pyrazolo[3,4-d]pyrimidin-3-yl)-4-fluoroindolin-l-yl)-2-(2-methyl-3-(trifluoromethyl)phenyl)ethan-1-one], for which the IC50 is greater than 1500 nM.
Same read-out and setting: the same measure for `Nc1ncnc2c1c(-c1ccc3c(c1F)CCN3C(=O)Cc1ccc(F)c(C(F)(F)F)c1)nn2C1COC1` [II-9, 1-(5-(4-amino-1-(oxetan-3-yl)-1H-pyrazolo[3,4-d]pyrimidin-3-yl)-4-fluoroindolin-1-yl)-2-(4-fluoro-3-(trifluoromethyl)phenyl)ethan-1-one]: 501 to 1500 nM.
